PubChem BioAssay AID248 (DTP/NCI, 2004)
Several values for one entry are separate records, joined by “and”; a condition that tells them apart may be missing. Identical values can stand only once. Inconclusive results and toxic doses are left out. Cut-off read from the data, not from the text of the source: active = T/C of 150% or more; inactive = T/C below 125%.

System: L1210 leukemia ip in BDF1 mice, survival T/C
Experiment: NCI In Vivo Anticancer Drug Screen. Data for tumor model L1210 Leukemia (intraperitoneal) in B6D2F1 (BDF1) mice
Settings: endpoint: mean survival time, higher = longer survival
Summary of the method: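 Survival endpoint. Drug-treated group vs vehicle group, expressed as T divided by C. Tumor passaged by transplantation.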

[1] = dose: 100.0 mg/kg/injection, schedule: Q01DX009 (ip), vehicle: saline with Tween-80
[2] = dose: 200.0 mg/kg/injection, schedule: Q01DX009 (ip), vehicle: saline with Tween-80
[3] = dose: 50.0 mg/kg/injection, schedule: Q01DX009 (ip), vehicle: saline with Tween-80
[4] = dose: 100.0 mg/kg/injection, schedule: Q04DX003 (ip), vehicle: saline with Tween-80
[5] = dose: 200.0 mg/kg/injection, schedule: Q04DX003 (ip), vehicle: saline with Tween-80
[6] = dose: 400.0 mg/kg/injection, schedule: Q04DX003 (ip), vehicle: saline with Tween-80
[7] = dose: 100.0 mg/kg/injection, schedule: Q01DX009 (ip), vehicle: Klucel (hydroxypropylcellulose) (HPC)
[8] = dose: 200.0 mg/kg/injection, schedule: Q01DX009 (ip), vehicle: Klucel (hydroxypropylcellulose) (HPC)
[9] = dose: 100.0 mg/kg/injection, schedule: Q04DX003 (ip), vehicle: Klucel (hydroxypropylcellulose) (HPC)

Measured: T/C

COc1ccc(OC(=O)Nc2ccc(F)cc2)cc1
inactive: dose: 50.0 mg/kg/injection, schedule: Q01DX001 (ip), vehicle: carboxymethylcellulose (CMC) 97 % of control | dose: 50.0 mg/kg/injection, schedule: Q01DX009 (ip), vehicle: carboxymethylcellulose (CMC) 93 % of control and 90 % of control | dose: 50.0 mg/kg/injection, schedule: Q04DX002 (ip), vehicle: carboxymethylcellulose (CMC) 95 % of control and 106 % of control | dose: 50.0 mg/kg/injection, schedule: Q04DX003 (ip), vehicle: carboxymethylcellulose (CMC) 101 % of control | dose: 100.0 mg/kg/injection, schedule: Q01DX001 (ip), vehicle: carboxymethylcellulose (CMC) 89 % of control | dose: 100.0 mg/kg/injection, schedule: Q01DX009 (ip), vehicle: carboxymethylcellulose (CMC) 93 % of control and 103 % of control | dose: 100.0 mg/kg/injection, schedule: Q04DX002 (ip), vehicle: carboxymethylcellulose (CMC) 101 % of control and 110 % of control | dose: 100.0 mg/kg/injection, schedule: Q04DX003 (ip), vehicle: carboxymethylcellulose (CMC) 101 % of control | dose: 200.0 mg/kg/injection, schedule: Q01DX001 (ip), vehicle: carboxymethylcellulose (CMC) 89 % of control | dose: 200.0 mg/kg/injection, schedule: Q01DX009 (ip), vehicle: carboxymethylcellulose (CMC) 101 % of control and 104 % of control | dose: 200.0 mg/kg/injection, schedule: Q04DX002 (ip), vehicle: carboxymethylcellulose (CMC) 96 % of control and 106 % of control | dose: 200.0 mg/kg/injection, schedule: Q04DX003 (ip), vehicle: carboxymethylcellulose (CMC) 101 % of control

O=C(O)c1ccc([N+](=O)[O-])o1
inactive: [1] 89 % of control | dose: 100.0 mg/kg/injection, schedule: Q04DX003 (ip), vehicle: other 100 % of control | [2] 97 % of control | dose: 200.0 mg/kg/injection, schedule: Q04DX003 (ip), vehicle: other 96 % of control

CN1CCCN(C)CC1
inactive: dose: 25.0 mg/kg/injection, schedule: Q01DX009 (ip), vehicle: saline with Tween-80 104 % of control | [3] 97 % of control | [1] 103 % of control | [4] 95 % of control | [2] 91 % of control | [5] 100 % of control | [6] 102 % of control

CC(=O)CC(=O)Nc1cccc(Cl)c1C
inactive: [7] 89 % of control | [8] 89 % of control

CCOC(=O)C1(C(=O)OCC)CCC2Nc3ccccc3CC(=O)N21 (configuration not stated)
inactive: dose: 25.0 mg/kg/injection, schedule: Q04DX003 (ip), vehicle: Klucel (hydroxypropylcellulose) (HPC) 101 % of control | dose: 50.0 mg/kg/injection, schedule: Q04DX003 (ip), vehicle: Klucel (hydroxypropylcellulose) (HPC) 94 % of control | [9] 100 % of control

CN(C)C(=Nc1ccc(NC(=O)c2ccc(C(=O)Nc3ccc(N=C(Nc4ccccc4)N(C)C)cc3)cc2)cc1)Nc1ccccc1
inactive: dose: 1.5 mg/kg/injection, schedule: Q01DX Z (ip), vehicle: carboxymethylcellulose (CMC) 95 % of control | dose: 3.0 mg/kg/injection, schedule: Q01DX Z (ip), vehicle: carboxymethylcellulose (CMC) 97 % of control | dose: 6.0 mg/kg/injection, schedule: Q01DX Z (ip), vehicle: carboxymethylcellulose (CMC) 107 % of control | dose: 12.0 mg/kg/injection, schedule: Q01DX Z (ip), vehicle: carboxymethylcellulose (CMC) 89 % of control

Nc1nc2ncc(CNc3ccc(CC(=O)NC(CCC(=O)O)C(=O)O)cc3)nc2c(=O)[nH]1 (configuration not stated)
inactive: dose: 75.0 mg/kg/injection, schedule: Q01DX001 (ip), vehicle: saline 103 % of control | dose: 150.0 mg/kg/injection, schedule: Q01DX001 (ip), vehicle: saline 103 % of control

CC(=O)OC12CC3(C)CC(C)(C1)CC(OC(C)=O)(C3)C2
inactive: dose: 100.0 mg/kg/injection, schedule: Q04DX002 (ip), vehicle: saline 113 % of control | dose: 200.0 mg/kg/injection, schedule: Q04DX002 (ip), vehicle: saline 90 % of control | dose: 400.0 mg/kg/injection, schedule: Q04DX002 (ip), vehicle: saline 113 % of control

Oc1ccc2ccccc2c1CN1CCCCC1
inactive: dose: 75.0 mg/kg/injection, schedule: Q01DX009 (ip), vehicle: saline 92 % of control | dose: 100.0 mg/kg/injection, schedule: Q04DX003 (ip), vehicle: saline 90 % of control | dose: 150.0 mg/kg/injection, schedule: Q01DX009 (ip), vehicle: saline 95 % of control | dose: 200.0 mg/kg/injection, schedule: Q04DX003 (ip), vehicle: saline 101 % of control | dose: 300.0 mg/kg/injection, schedule: Q01DX009 (ip), vehicle: saline 89 % of control | dose: 400.0 mg/kg/injection, schedule: Q04DX003 (ip), vehicle: saline 106 % of control

NC(N)=NCCCCCCN=C(N)N
inactive: dose: 6.25 mg/kg/injection, schedule: Q01DX Z (oral), vehicle: saline 106 % of control | dose: 6.25 mg/kg/injection, schedule: Q04DX003 (ip), vehicle: saline with Tween-80 100 % of control | dose: 12.5 mg/kg/injection, schedule: Q01DX Z (oral), vehicle: saline 103 % of control | dose: 12.5 mg/kg/injection, schedule: Q04DX003 (ip), vehicle: saline with Tween-80 100 % of control | dose: 25.0 mg/kg/injection, schedule: Q01DX Z (oral), vehicle: saline 103 % of control | dose: 25.0 mg/kg/injection, schedule: Q04DX003 (ip), vehicle: saline with Tween-80 99 % of control and 101 % of control

CCOC(=O)c1ccc(NC(=O)SCCSC(=O)Nc2ccc(C(=O)OCC)cc2)cc1
inactive: [7] 90 % of control | [8] 91 % of control | dose: 400.0 mg/kg/injection, schedule: Q01DX009 (ip), vehicle: Klucel (hydroxypropylcellulose) (HPC) 91 % of control

CCOC(=O)/C=C1/Nc2cc(Cl)c(Cl)cc2NC1=O
inactive: [4] 97 % of control | [5] 95 % of control | [6] 89 % of control

CCN(CC)CN(CC)CC
inactive: dose: 25.0 mg/kg/injection, schedule: Q04DX002 (ip), vehicle: saline with Tween-80 103 % of control | dose: 50.0 mg/kg/injection, schedule: Q04DX002 (ip), vehicle: saline with Tween-80 100 % of control | dose: 100.0 mg/kg/injection, schedule: Q04DX002 (ip), vehicle: saline with Tween-80 98 % of control and 103 % of control

CCC1(CC)C(=O)C=CNC1=O
inactive: dose: 50.0 mg/kg/injection, schedule: Q04DX003 (ip), vehicle: saline with Tween-80 95 % of control | [4] 107 % of control | [5] 102 % of control

Cc1ccc(S(=O)(=O)N(C)C)cc1N
inactive: [3] 105 % of control | [1] 98 % of control | [4] 107 % of control | [2] 96 % of control | [5] 97 % of control | [6] 102 % of control

CCCC(C)CCCNCCOC(=O)c1cccc(N)c1 (configuration not stated)
inactive: dose: 75.0 mg/kg/injection, schedule: Q01DX001 (ip), vehicle: other 97 % of control | dose: 150.0 mg/kg/injection, schedule: Q01DX001 (ip), vehicle: other 94 % of control

CC(C)CCCCCc1ccc(OCCOc2ccc(C(=O)Nc3ccc(S(=O)(=O)F)cc3N)cc2)cc1
inactive: dose: 100.0 mg/kg/injection, schedule: Q01DX009 (ip), vehicle: saline sonified 107 % of control | [9] 98 % of control | dose: 200.0 mg/kg/injection, schedule: Q01DX009 (ip), vehicle: saline sonified 100 % of control | dose: 200.0 mg/kg/injection, schedule: Q04DX003 (ip), vehicle: Klucel (hydroxypropylcellulose) (HPC) 96 % of control | dose: 400.0 mg/kg/injection, schedule: Q01DX009 (ip), vehicle: saline sonified 98 % of control | dose: 400.0 mg/kg/injection, schedule: Q04DX003 (ip), vehicle: Klucel (hydroxypropylcellulose) (HPC) 94 % of control

CCCCP(=O)(CCCC)Oc1ccccc1F
inactive: [1] 90 % of control | [2] 86 % of control
